Laboratory results published in patent publication US20080119467A1, “Purine Derivatives, Compositions Containing Them and Use Thereof” (AVENTIS PHARMA S.A., priority 2005, published 2008).
Counter-ions that a name gives are not always drawn.

test system: not given; assay: not given; conditions: not given

Compound	melting point [°C]
Cl.Clc1nc(N2CCN(Cc3ccccc3)CC2)c2nc[nH]c2n1 [Example 1, 2-Chloro-6-[4-(phenylmethyl)-piperazin-1-yl]-1H-purine monohydrochloride]	264 to 266
Clc1cccc(N2CCN(c3nc(Cl)nc4[nH]cnc34)CC2)c1 [Example 13, 2-Chloro-6-[4-(3-chloro-phenyl)-piperazin-1-yl]1H-purine]	> 260
Fc1nc(N2CCN(c3ccccn3)CC2)c2nc[nH]c2n1 [Example 23, 2-Fluoro-[4-(pyridin-2-yl)-piperazin-1-yl]1H-purine]	> 260
Clc1nc(N2CCN(Cc3ccccc3)CC2)c2cc[nH]c2n1 [Example 28, 4-(4-Phenylmethyl-piperazin-1-yl)-2-chloro-7H-pyrrolo[2,3-d]pyrimidine]	250
Cl.Clc1cc(N2CCN(c3ccccn3)CC2)c2nc[nH]c2n1 [Example 30, 5-Chloro-7-(4-pyridin-2-yl-piperazin-1-yl)-3H-imidazo[4,5-b]pyridine monohydrochloride]	> 260

target: Hsp82 (Saccharomyces cerevisiae, UniProt P02829); assay: Inhibition of the ATPase activity of Hsp82 in the enzymatic coupling system (pyruvate kinase / lactate dehydrogenase); format: biochemical; conditions: ATPase activity of Hsp82, PK/LDH enzymatic coupling system, 1 μM Hsp82, 250 μM ATP, 37° C., 340 nm
Sequence (P02829 whole entry): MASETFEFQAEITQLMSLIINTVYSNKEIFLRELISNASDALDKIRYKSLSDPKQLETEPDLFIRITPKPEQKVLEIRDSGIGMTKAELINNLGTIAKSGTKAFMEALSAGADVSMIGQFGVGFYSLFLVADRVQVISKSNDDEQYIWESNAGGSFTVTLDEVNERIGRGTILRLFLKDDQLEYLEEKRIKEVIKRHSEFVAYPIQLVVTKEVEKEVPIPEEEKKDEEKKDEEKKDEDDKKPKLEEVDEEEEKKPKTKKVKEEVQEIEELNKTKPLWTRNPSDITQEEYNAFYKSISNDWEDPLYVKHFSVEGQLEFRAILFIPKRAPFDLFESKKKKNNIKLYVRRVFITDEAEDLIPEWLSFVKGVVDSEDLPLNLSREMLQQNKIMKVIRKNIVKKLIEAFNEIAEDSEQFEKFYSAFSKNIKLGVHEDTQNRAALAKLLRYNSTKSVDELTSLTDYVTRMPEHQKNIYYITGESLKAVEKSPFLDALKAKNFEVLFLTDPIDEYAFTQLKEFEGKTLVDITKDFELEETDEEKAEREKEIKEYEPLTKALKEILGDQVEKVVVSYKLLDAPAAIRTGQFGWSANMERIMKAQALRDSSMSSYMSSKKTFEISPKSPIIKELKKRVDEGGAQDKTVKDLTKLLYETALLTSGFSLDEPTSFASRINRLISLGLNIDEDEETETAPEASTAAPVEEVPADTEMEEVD
Source text: The formation of ADP due to the ATPase activity of Hsp82 was utilized for developing another method for evaluating the enzymatic activity of this enzyme by the application of an enzymatic coupling system employing pyruvate kinase (PK) and lactate dehydrogenase (LDH). In this spectrophotometric method of the kinetic type, the PK catalyzes the formation of ATP and pyruvate from phosphenol-pyruvate (PEP) and of ADP produced by HSP82. The pyruvate formed, which is a substrate of LDH, is then converted to lactate in the presence of NADH. In this case, the decrease in the concentration of NADH, measured from the decrease in absorbance at a wavelength of 340 nm, is proportional to the concentration of ADP produced by HSP82. The test products are incubated in a reaction volume of 100 μl of compound buffer of 100 mM Hepes-NaOH (pH 7.5), 5 mM MgCl2, 1 mM DTT, 150 mM KCl, 0.3 mM NADH, 2.5 mM PEP and 250 μM ATP. This mixture is preincubated at 37° C. for 30 min before adding 3.77 units of LDH and 3.77 units of PK. The reaction is initiated by addition of the product to be evaluated, at variable concentrations, and of Hsp82, at a concentration of 1 μM. Then the enzymatic activity of Hsp82 is measured, continuously, in a microplate reader, at 37° C., at a wavelength of 340 nm. The initial rate of the reaction is obtained by measuring the slope of the tangent of the recorded curve to the origin. The enzymatic activity is expressed as μM of ADP formed per minute. The effect of the various products tested is expressed as percentage inhibition of the ATPase activity. The inhibitory activities on the ATPase activity of Hsp82 obtained with the products of the invention in the enzymatic coupling system are presented in the following table, according to the following criteria of inhibition of the ATPase activity of Hsp82: […]

Compound	IC50 [nM]
Cl.Clc1nc(N2CCN(Cc3ccccc3)CC2)c2nc[nH]c2n1 [Example 1, 2-Chloro-6-[4-(phenylmethyl)-piperazin-1-yl]-1H-purine monohydrochloride]	< 1000
Clc1nc(N2CCN(c3ccccn3)CC2)c2nc[nH]c2n1 [Example 2, 2-chloro-6-[4-(pyridin-2-yl)-piperazin-1-yl]1H-purine]	< 1000
Clc1nc(N2CCOCC2)c2nc[nH]c2n1 [Example 3, 2-chloro-6-(morpholin-4-yl)-1H-purine]	1000 to 10000
Clc1nc(N2CCSCC2)c2nc[nH]c2n1 [Example 4, 2-chloro-6-(thiamorpholin-4-yl)-1H-purine]	1000 to 10000
Clc1nc(N2CCCCC2)c2nc[nH]c2n1 [Example 5, 2-chloro-6-(piperidin-1-yl)-1H-purine]	< 1000
Clc1nc(N2CCN(C(c3ccccc3)c3ccccc3)CC2)c2nc[nH]c2n1 [Example 6, 2-chloro-6-[4-(diphenylmethyl)-piperazin-1-yl]1H-purine]	1000 to 10000
Clc1nc(NC2CCCC2)c2nc[nH]c2n1 [Example 7, 2-chloro-6-cyclopentylamino-1H-purine]	10000 to 100000
Clc1nc(N2CCC(Cc3ccccc3)CC2)c2nc[nH]c2n1 [Example 8, 2-Chloro-6-[4-(phenylmethyl)-piperidin-1-yl]-1H-purine monohydrochloride]	< 1000
Clc1nc(N2CCN(c3ccccc3)CC2)c2nc[nH]c2n1 [Example 9, 2-Chloro-6-(4-phenyl-piperazin-1-yl)-1H-purine monohydrochloride]	1000 to 10000
COc1ccc(CN2CCN(c3nc(Cl)nc4[nH]cnc34)CC2)cc1OC [Example 10, 2-chloro-6-[4-(3,4-dimethoxy-phenyl)methyl-piperazin-1-yl]1H-purine]	10000 to 100000
Clc1nc(N2CCN(c3cccnc3)CC2)c2nc[nH]c2n1 [Example 11, 2-chloro-6-[4-(pyridin-3-yl)-piperazin-1-yl]1H-purine]	1000 to 10000
NC(=O)c1cccc(N2CCN(c3nc(Cl)nc4[nH]cnc34)CC2)c1 [Example 12, 2-chloro-6-[4-(3-carboxamido-phenyl)-piperazin-1-yl]1H-purine]	1000 to 10000
Clc1cccc(N2CCN(c3nc(Cl)nc4[nH]cnc34)CC2)c1 [Example 13, 2-Chloro-6-[4-(3-chloro-phenyl)-piperazin-1-yl]1H-purine]	10000 to 100000
COc1cc(C(=O)N2CCN(c3nc(Cl)nc4[nH]cnc34)CC2)cc(OC)c1OC [Example 14, 2-chloro-6-[4-(3,4,5-trimethoxy-phenyl)carbonyl-piperazin-1-yl]1H-purine]	10000 to 100000
O=C(c1ccccc1)N1CCN(c2nc(Cl)nc3[nH]cnc23)CC1 [Example 15, 2-chloro-6-[4-(phenyl)carbonyl-piperazin-1-yl]1H-purine]	1000 to 10000
Clc1nc(N2CCC(Nc3ccccc3)CC2)c2nc[nH]c2n1 [Example 16, 2-Chloro-6-[4-(phenylamino)-piperidin-1-yl]-1H-purine monohydrochloride]	< 1000
Cc1cccc(N2CCN(c3nc(Cl)nc4[nH]cnc34)CC2)n1 [Example 18, 2-Chloro-6-[4-(6-methyl-pyridin-2-yl)-piperazin-1-yl]-1H-purine monohydrochloride]	1000 to 10000
Clc1nc(N2CCN(c3ncccn3)CC2)c2nc[nH]c2n1 [Example 19, 2-Chloro-6-[4-(pyrimidin-2-yl)-piperazin-1-yl]-1H-purine monohydrochloride]	< 1000
COc1ccccc1N1CCN(c2nc(Cl)nc3[nH]cnc23)CC1 [Example 20, 2-Chloro-6-[4-(2-methoxy-phenyl)-piperazin-1-yl]-1H-purine monohydrochloride]	10000 to 100000
Clc1nc(N2CCN(c3ccc4ccccc4n3)CC2)c2nc[nH]c2n1 [Example 21, 2-Chloro-6-[4-(quinolein-2-yl)-piperazin-1-yl]-1H-purine monohydrochloride]	< 1000
FC(F)(F)c1ccccc1N1CCN(c2nc(Cl)nc3[nH]cnc23)CC1 [Example 22, 2-chloro-6-[4-(2-trifluoromethyl-phenyl)-piperazin-1-yl]1H-purine]	1000 to 10000
Fc1nc(N2CCN(c3ccccn3)CC2)c2nc[nH]c2n1 [Example 23, 2-Fluoro-[4-(pyridin-2-yl)-piperazin-1-yl]1H-purine]	1000 to 10000
FC(F)(F)c1cccnc1N1CCN(c2nc(Cl)nc3[nH]cnc23)CC1 [Example 24, 2-Chloro-6-[4-(3-trifluoromethyl-pyridin-2-yl)-piperazin-1-yl]-9H-purine]	1000 to 10000
OCc1cc(F)ccc1N1CCN(c2nc(Cl)nc3[nH]cnc23)CC1 [Example 26, {2-[4-(2-Chloro-9H-purin-6-yl)-piperazin-1-yl]-5-fluoro-phenyl}-methanol]	< 1000
NC(=O)c1cccnc1N1CCN(c2nc(Cl)nc3[nH]cnc23)CC1 [Example 27, 2-[4-(2-Chloro-9H-purin-6-yl)-piperazin-1-yl]-nicotinamide]	< 1000
Clc1nc(N2CCN(Cc3ccccc3)CC2)c2cc[nH]c2n1 [Example 28, 4-(4-Phenylmethyl-piperazin-1-yl)-2-chloro-7H-pyrrolo[2,3-d]pyrimidine]	1000 to 10000
Clc1nc(N2CCN(c3ccccn3)CC2)c2cc[nH]c2n1 [Example 29, 2-Chloro-4-(4-pyridin-2-yl-piperazin-1-yl)-7H-pyrrolo[2,3-d]pyrimidine]	< 1000
Cl.Clc1cc(N2CCN(c3ccccn3)CC2)c2nc[nH]c2n1 [Example 30, 5-Chloro-7-(4-pyridin-2-yl-piperazin-1-yl)-3H-imidazo[4,5-b]pyridine monohydrochloride]	< 1000
NC(=O)c1ccccc1N1CCN(c2cc(Cl)nc3[nH]cnc23)CC1 [Example 31, 2-[4-(5-Chloro-3H-imidazo[4,5-b]pyridin-7-yl)-piperazin-1-yl]-benzamide]	< 1000
